Laboratory results: patent publication US20230303495A9, “PYRIDINE OXYNITRIDE, PREPARATION METHOD THEREFOR AND USE THEREOF” (Orion Corporation, priority 2019, published 2023)

Target: T1, NaV1.8 (Homo sapiens, UniProt Q9Y5Y9)
T1 construct: expressed in transfected cells
Experiment: Whole-cell patch clamp blocking activity against NaV1.8 channel current
Type: cell-based
Conditions: for IC50: CHO cell line stably expressing Nav1.8 (SCN10A: NM_006514), patch clamp; for Blocking rate (%) @100 nM: against NaV1.8 at 100 nM, CHO cell line stably expressing Nav1.8, patch clamp
Description: 1. Test method: patch clamp technique was used to detect the influence of compounds on voltage-gated sodium channel (NaV) 1.1-1.8 subtype current
1) The specific information of the CHO cell line stably expressing the Nav1.8 channel was as follows: SCN10A: NM_006514
2) Cells were cultured in HAM'S/F-12 medium containing 10% fetal bovine serum and 10 μg/mL Blasticidin, 200 μg/mL Hygromycin B and 100 μg/mL Zeocin, culture temperature was 37° C. and the concentration of CO2 was 5%.
5) Patch clamp detection, before the experiment, the cells were separated with 0.25%—trypsin EDTA, inoculated into a 24 well plate with a density of 8*10^3 cells per well (final volume: 500 μL), tetracycline was added thereto, and experimental test was performed on the next day.
1) Extracellular fluid: 140 mM NaCl, 3.5 mM KCl, 2 mM CaCl2, 10 mM HEPES, 1.25 mM NaH2PO4, 1 mM MgCl2, 10 mM Glucose, pH=7.4 (NaOH).
2) Intracellular fluid: 50 mM CsCl, 10 mM NaCl, 10 mM HEPES, 20 mM EGTA, 60 mM CsF, pH=7.2 (CsOH).
The voltage stimulation scheme of whole-cell patch clamp recording of Nav channel current was as follows: first the membrane potential of the cell was clamped at −130 mV, and then the voltage was stepped to −40 mV or −20 mV at 10 mv step intervals for 8 s. The clamping voltage was maintained at −120 mV, and data was collected repeatedly every 20 seconds. The peak amplitude of its inward current was measured to determine its half-inactivation voltage.
The cell clamping potential was set at −120 mV. The resting and half-inactivation inhibition of sodium current was measured using double pulse mode. The double pulse mode was completed by two 0 mV depolarization test pulses (TP1 and TP2) lasting 50 ms. The conditional voltage between the two depolarization pulses was set near the half-inactivation voltage (lasting 8 s). […] The data acquisition was repeated at an interval of 20 s and the current peak was measured at the two test pulses.
When the current of the Nav channel recorded by the whole cell was stable, the drug was administered, after each drug concentration was applied for 5 minutes (or the current was stable), the next concentration would be tested, and multiple concentrations would be tested for each test compound. The cover glass covered with cells was placed in the recording bath of an inverted microscope, the test compound and the external liquid without compound flowed through the recording chambers in turns from low concentration to high concentration by gravity perfusion, so as to act on the cells, in the recording, the liquid exchange was carried out by vacuum pump. The current detected in each cell in the compound-free external fluid served as its own control group. Multiple cells were detected independently and repeatedly. All electrophysiological experiments were performed at room temperature.
First, the current after the action of each drug concentration and the blank control current were normalized, and then the blocking rate corresponding to each drug concentration was calculated. The mean and standard error were calculated for each concentration, and all the above values were calculated by Microsoft Excel 2013. In addition, the half-inhibitory concentration of each compound was calculated by IGOR software with the following equation: retardation rate=1/[1+(IC50/c)^h].
The dose-dependent effect was nonlinearly fitted with the above equation, wherein, c refers to the drug concentration, IC50 was the half inhibitory concentration, and h refers to the Hill coefficient. The curve fitting and the calculation of IC50 were completed by IGOR software (software version: 6.0.1.0).

T1 sequence (Q9Y5Y9 whole entry): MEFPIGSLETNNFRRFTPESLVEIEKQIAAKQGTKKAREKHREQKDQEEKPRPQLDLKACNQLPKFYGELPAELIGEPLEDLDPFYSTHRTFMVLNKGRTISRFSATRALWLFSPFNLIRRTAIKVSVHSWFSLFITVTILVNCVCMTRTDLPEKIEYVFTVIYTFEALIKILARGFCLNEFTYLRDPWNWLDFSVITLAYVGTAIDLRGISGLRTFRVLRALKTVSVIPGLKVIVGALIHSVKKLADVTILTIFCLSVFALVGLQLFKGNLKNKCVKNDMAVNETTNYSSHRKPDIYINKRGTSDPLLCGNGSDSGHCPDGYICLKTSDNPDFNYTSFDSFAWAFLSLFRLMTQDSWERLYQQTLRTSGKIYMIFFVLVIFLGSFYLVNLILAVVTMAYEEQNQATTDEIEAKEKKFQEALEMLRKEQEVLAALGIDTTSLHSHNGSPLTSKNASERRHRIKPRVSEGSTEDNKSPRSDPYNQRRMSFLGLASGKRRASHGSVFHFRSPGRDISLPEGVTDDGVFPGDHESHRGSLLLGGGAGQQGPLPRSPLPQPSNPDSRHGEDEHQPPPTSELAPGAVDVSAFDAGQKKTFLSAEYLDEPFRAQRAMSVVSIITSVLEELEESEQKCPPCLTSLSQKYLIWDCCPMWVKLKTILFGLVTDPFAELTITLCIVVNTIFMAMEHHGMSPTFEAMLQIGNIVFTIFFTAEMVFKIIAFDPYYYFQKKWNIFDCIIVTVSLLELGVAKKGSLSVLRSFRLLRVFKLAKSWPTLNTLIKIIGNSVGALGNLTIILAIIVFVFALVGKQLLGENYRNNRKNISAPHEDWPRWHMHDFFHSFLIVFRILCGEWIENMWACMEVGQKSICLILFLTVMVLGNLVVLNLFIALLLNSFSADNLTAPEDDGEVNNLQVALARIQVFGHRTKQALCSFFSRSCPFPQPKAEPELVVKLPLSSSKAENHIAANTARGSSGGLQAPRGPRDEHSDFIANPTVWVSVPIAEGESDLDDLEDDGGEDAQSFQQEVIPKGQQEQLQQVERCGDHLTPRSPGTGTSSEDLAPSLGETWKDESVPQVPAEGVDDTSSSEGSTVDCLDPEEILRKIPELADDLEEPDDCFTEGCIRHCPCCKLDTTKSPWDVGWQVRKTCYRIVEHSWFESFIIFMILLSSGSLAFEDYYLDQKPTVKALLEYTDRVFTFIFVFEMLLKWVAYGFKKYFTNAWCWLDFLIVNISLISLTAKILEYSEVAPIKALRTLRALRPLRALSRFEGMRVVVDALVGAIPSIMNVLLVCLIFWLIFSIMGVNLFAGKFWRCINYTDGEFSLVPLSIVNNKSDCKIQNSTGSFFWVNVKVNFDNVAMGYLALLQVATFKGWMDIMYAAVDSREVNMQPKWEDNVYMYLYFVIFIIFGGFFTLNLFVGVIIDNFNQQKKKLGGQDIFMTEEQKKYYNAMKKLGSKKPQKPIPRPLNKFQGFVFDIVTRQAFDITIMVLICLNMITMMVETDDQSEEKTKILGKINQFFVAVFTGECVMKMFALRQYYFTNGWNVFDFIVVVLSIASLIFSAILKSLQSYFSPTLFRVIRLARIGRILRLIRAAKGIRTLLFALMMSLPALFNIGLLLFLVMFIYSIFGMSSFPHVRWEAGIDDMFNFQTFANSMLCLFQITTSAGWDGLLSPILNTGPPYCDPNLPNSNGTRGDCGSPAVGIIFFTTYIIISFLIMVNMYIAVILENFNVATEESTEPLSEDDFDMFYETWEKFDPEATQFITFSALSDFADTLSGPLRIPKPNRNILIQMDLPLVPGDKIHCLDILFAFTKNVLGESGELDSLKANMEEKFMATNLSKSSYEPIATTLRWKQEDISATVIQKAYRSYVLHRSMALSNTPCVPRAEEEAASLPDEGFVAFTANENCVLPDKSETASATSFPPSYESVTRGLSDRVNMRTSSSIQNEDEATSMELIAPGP

| Compound | IC50 | Blocking rate (%) @100 nM |
| --- | --- | --- |
| COc1cc(F)ccc1Oc1cc(Cl)c(Cl)cc1C(=O)Nc1ccc[n+]([O-])c1 [Embodiment A5] | 7.4 nM |  |
| Cc1cc(F)ccc1Oc1cc(S(F)(F)(F)(F)F)ccc1C(=O)Nc1ccc[n+]([O-])c1 [Embodiment A8] |  | 81.85% |
| O=C(Nc1ccc[n+]([O-])c1)c1c(Oc2ccc(OC(F)F)cc2)ccc(C(F)(F)F)c1F [Embodiment A16] |  | 85.08% |
| O=C(Nc1ccc[n+]([O-])c1)c1c(Oc2ccc(OC(F)(F)F)cc2)ccc(C(F)(F)C(F)(F)F)c1F [Embodiment A18] |  | 96.02% |
| O=C(Nc1ccc[n+](O)c1)c1c(Oc2ccc(OC(F)(F)F)cc2)ccc(OC(F)(F)F)c1F [Embodiment A19] | 10 nM |  |
| O=C(Nc1ccc[n+](O)c1)c1c(F)cc(OC(F)(F)F)cc1Oc1ccc(OC(F)(F)F)cc1 [Embodiment A20] |  | 87.14% |
| O=C(Nc1ccc[n+](O)c1)c1c(Oc2ccc(OC(F)(F)F)c(F)c2)cc(Cl)c(Cl)c1F [Embodiment A21] |  | 98.02% |
| O=C(Nc1ccc[n+]([O-])c1)c1c(Oc2ccc(OC(F)(F)F)cc2)cc(Cl)c(Cl)c1F [Embodiment A22] | 0.32 nM |  |
| O=C(Nc1cc[n+]([O-])nc1)c1c(Oc2ccc(OC(F)(F)F)cc2)ccc(I)c1F [Embodiment A23] |  | 97.04% |
| O=C(Nc1ccn[n+]([O-])c1)c1c(Oc2ccc(OC(F)(F)F)cc2)ccc(I)c1F [Embodiment A24] |  | 91.28% |
| O=C(Nc1cc[n+]([O-])nc1)c1ccc(C(F)(F)F)cc1Oc1ccc(OC(F)(F)F)c(F)c1 [Embodiment A26] |  | 79.32% |
| O=C(Nc1cc[n+]([O-])nc1)c1c(Oc2ccc(OC(F)(F)F)cc2)ccc(C(F)(F)F)c1Cl [Embodiment A27] | 0.64 nM |  |
| O=C(Nc1ccn[n+]([O-])c1)c1c(Oc2ccc(OC(F)(F)F)cc2)ccc(C(F)(F)F)c1Cl [Embodiment A28] | 2.9 nM |  |
| O=C(Nc1ccc[n+]([O-])c1)c1c(Cl)cc(C(F)(F)F)cc1Oc1ccc(OC(F)(F)F)cc1 [Embodiment A29] |  | 87.63% |
| O=C(Nc1ccc[n+]([O-])c1)c1c(Oc2ccc(OCC(F)(F)F)cc2)ccc(Br)c1Cl [Embodiment A31] |  | 88.88% |
| O=C(Nc1cc[n+]([O-])nc1)c1c(Oc2ccc(OC(F)(F)F)cc2)ccc(Br)c1F [Embodiment A33] | 4.6 nM |  |
| O=C(Nc1ccn[n+]([O-])c1)c1c(Oc2ccc(OC(F)(F)F)cc2)ccc(Br)c1F [Embodiment A34] |  | 90.16% |
| O=C(Nc1cc[n+]([O-])nc1)c1cc(Cl)c(Cl)cc1Oc1ccc(OC(F)(F)F)cc1 [Embodiment A35] | 3 nM |  |
| O=C(Nc1ccn[n+]([O-])c1)c1cc(Cl)c(Cl)cc1Oc1ccc(OC(F)(F)F)cc1 [Embodiment A36] |  | 87.40% |
| O=C(Nc1cc[n+]([O-])nc1)c1cc(Cl)c(Cl)cc1Oc1ccc(OC(F)(F)F)c(F)c1 [Embodiment A37] | 3.2 nM |  |
| O=C(Nc1ccn[n+]([O-])c1)c1cc(Cl)c(Cl)cc1Oc1ccc(OC(F)(F)F)c(F)c1 [Embodiment A38] | 7.3 nM |  |
| O=C(Nc1ccc[n+]([O-])c1)c1c(Oc2ccc(OC(F)(F)F)cc2)cc(Cl)c(C(F)(F)F)c1F [Embodiment A40] |  | 99.91% |
| O=C(Nc1ccc[n+](O)c1)c1c(Oc2ccc(OC(F)(F)F)cc2)ccc(C(F)(F)F)c1F [Embodiment A42] | 3.6 nM |  |
| O=C(Nc1cc[n+]([O-])c(Cl)c1)c1c(Oc2ccc(OC(F)(F)F)cc2)ccc(C(F)(F)F)c1F [Embodiment A43] |  | 76.10% |
| O=C(Nc1cc[n+]([O-])cc1)c1c(Oc2ccc(OC(F)(F)F)cc2)ccc(C(F)(F)F)c1F [Embodiment A44] |  | 77.61% |
| O=C(Nc1ccn[n+]([O-])c1)c1c(Oc2ccc(OC(F)(F)F)cc2)ccc(C(F)(F)F)c1F [Embodiment A45] |  | 78.46% |

| Compound | IC50 | Blocking rate (%) @100 nM |
| --- | --- | --- |
| O=C(Nc1ccc[n+]([O-])c1)c1c(Oc2ccc(F)cc2Cl)ccc(C(F)(F)F)c1F [Embodiment A50] |  | 79.66% |
| Cc1cc(OC(F)(F)F)ccc1Oc1ccc(C(F)(F)F)c(F)c1C(=O)Nc1ccc[n+](O)c1 [Embodiment A51] | 2.7 nM |  |
| O=C(Nc1ccc[n+]([O-])c1)c1c(Oc2ccc(OC(F)(F)F)cc2F)ccc(C(F)(F)F)c1F [Embodiment A52] |  | 80.75% |
| O=C(Nc1ccc[n+](O)c1)c1c(Oc2ccc(OCC(F)(F)F)cc2)ccc(C(F)(F)F)c1F [Embodiment A53] |  | 85.77% |
| O=C(Nc1ccc[n+](O)c1)c1c(Oc2ccc(OC(F)(F)F)cc2Cl)ccc(C(F)(F)F)c1F [Embodiment A54] |  | 94.99% |
| O=C(Nc1ccc[n+](O)c1)c1c(Oc2ccc(OC(F)(F)F)cc2)ccc(C(F)(F)F)c1Cl [Embodiment A57] | 1.8 nM |  |
| O=C(Nc1ccc[n+]([O-])c1)c1c(Oc2ccc(OC(F)(F)F)cc2)cnc(C(F)(F)F)c1F [Embodiment A59] |  | 87.57% |
| O=C(Nc1cc[n+]([O-])nc1)c1c(Oc2ccc(OC(F)(F)F)cc2)cnc(C(F)(F)F)c1F [Embodiment A61] | 10.2 nM |  |
| O=C(Nc1ccc[n+](O)c1)c1c(Oc2ccc(OC(F)(F)F)c(F)c2)cnc(C(F)(F)F)c1F [Embodiment A62] |  | 89.79% |
| O=C(Nc1ccc[n+]([O-])c1)c1c(Oc2ccc(OC(F)(F)F)cc2)cnc(C(F)(F)F)c1Cl [Embodiment A63] |  | 93.13% |
| O=C(Nc1cc[n+]([O-])nc1)c1c(Oc2ccc(OC(F)(F)F)cc2)cnc(C(F)(F)F)c1Cl [Embodiment A65] |  | 93.18% |
| O=C(Nc1cc[n+]([O-])nc1)c1c(Oc2ccc(OC(F)F)cc2)ccc(C(F)(F)F)c1F [Embodiment A72] |  | 85.63% |
| O=C(Nc1ccc[n+]([O-])c1)c1c(Oc2ccc(OC(F)(F)F)cc2)ccc(I)c1F [Embodiment A73] | 3.2 nM |  |
| O=C(Nc1ccc[n+](O)c1)c1c(Oc2ccc(OC(F)(F)F)cc2)ccc(Br)c1F [Embodiment A74] | 3.5 nM |  |
| O=C(Nc1ccc[n+]([O-])c1)c1c(Oc2ccc(OC(F)(F)F)cc2)ccc(Cl)c1F [Embodiment A75] |  | 88.87% |
| COc1cc(Oc2ccc(OC(F)(F)F)cc2)c(C(=O)Nc2ccc[n+]([O-])c2)c(F)c1C(F)(F)F [Embodiment A78] |  | 96.55% |
| O=C(Nc1cc[n+]([O-])nc1)c1c(F)cc(C(F)(F)F)cc1Oc1ccc(OC(F)(F)F)cc1 [Embodiment A80] | 8.4 nM |  |
| O=C(Nc1cc[n+]([O-])nc1)c1c(Oc2ccc(OC(F)(F)F)c(F)c2)cnc(C(F)(F)F)c1F [Embodiment A83] |  | 84.98% |
| COc1cc(F)ccc1Oc1cc(C(F)(F)F)c(Cl)cc1C(=O)Nc1ccc[n+]([O-])c1 [Embodiment A85] | 1.7 nM |  |
| COc1cc(F)ccc1Oc1cc(C(F)(F)F)c(Cl)c(F)c1C(=O)Nc1ccc[n+]([O-])c1 [Embodiment A86] | 0.08 nM |  |
| Cc1cc(Oc2ccc(OC(F)(F)F)cc2)c(C(=O)Nc2ccc[n+]([O-])c2)cc1C(F)(F)F [Embodiment A90] |  | 89.50% |
| O=C(Nc1ccc[n+]([O-])c1)c1cc(Cl)c(OC(F)(F)F)cc1Oc1ccc(OC(F)(F)F)cc1 [Embodiment A91] |  | 92.81% |
| Cc1cc(Oc2ccc(OC(F)(F)F)cc2)c(C(=O)Nc2ccc[n+]([O-])c2)cc1Cl [Embodiment A92] |  | 85.44% |
| O=C(Nc1ccc[n+]([O-])c1)c1cc(Cl)c(C2CC2)cc1Oc1ccc(OC(F)(F)F)cc1 [Embodiment A95] |  | 93.84% |
| O=C(Nc1ccc[n+]([O-])c1)c1cc(Cl)c(Br)cc1Oc1ccc(OC(F)(F)F)cc1 [Embodiment A96] |  | 88.78% |
